The text below walks through data of patent US20130158031A1 (SU ZHOU JING HONG BIOTECH CO., LTD., priority 2011, published 2013).

SMILES strings stand for the structures.

This experiment deals with T1, human PDE10A (Homo sapiens, UniProt Q9Y233).
T1 construct: Full-length human PDE10A cDNA is amplified using PCR; made in house; host or cells: HEK293 cells, transiently transfected with Lipofectamine 2000; supernatant of the sonicated lysate after 10,000 g
T1 sequence (Q9Y233 1-779 isoform Q9Y233-1): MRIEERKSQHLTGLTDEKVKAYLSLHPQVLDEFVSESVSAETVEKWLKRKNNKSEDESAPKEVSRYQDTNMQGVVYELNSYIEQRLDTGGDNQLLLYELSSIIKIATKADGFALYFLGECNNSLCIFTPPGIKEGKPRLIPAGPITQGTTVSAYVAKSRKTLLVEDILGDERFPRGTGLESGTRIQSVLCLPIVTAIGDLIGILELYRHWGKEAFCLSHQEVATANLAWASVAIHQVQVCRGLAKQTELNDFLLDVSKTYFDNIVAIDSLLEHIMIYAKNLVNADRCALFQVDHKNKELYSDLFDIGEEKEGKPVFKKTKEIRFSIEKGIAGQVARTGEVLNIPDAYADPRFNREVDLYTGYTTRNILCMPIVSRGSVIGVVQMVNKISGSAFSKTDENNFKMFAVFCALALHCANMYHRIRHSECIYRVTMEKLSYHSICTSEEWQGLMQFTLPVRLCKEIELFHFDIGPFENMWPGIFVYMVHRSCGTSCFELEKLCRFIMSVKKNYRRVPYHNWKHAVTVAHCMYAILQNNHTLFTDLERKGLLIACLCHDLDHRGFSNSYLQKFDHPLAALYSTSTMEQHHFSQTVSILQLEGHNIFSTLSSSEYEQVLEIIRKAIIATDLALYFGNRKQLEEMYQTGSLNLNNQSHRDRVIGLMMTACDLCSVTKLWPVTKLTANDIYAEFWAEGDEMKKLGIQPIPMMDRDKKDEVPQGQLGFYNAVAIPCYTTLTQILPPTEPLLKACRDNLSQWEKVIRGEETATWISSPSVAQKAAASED
Nature of the experiment: PDE10A inhibition assay (IMAP fluorescence polarization). It is filed as biochemical. The conditions noted are these: hPDE10A enzyme from transfected HEK293 cell lysate, fluorescein-labeled cAMP/cGMP. Here is the method:
Full-length human PDE10A cDNA is amplified using PCR and cloned into pcDNA3.0 vector (Invitrogen). After verified by DNA sequencing, the plasmid is transfected into HEK293 cell using the Lipofectamine 2000 reagent (Invitrogen). Cells are subsequently harvested and sonicated in cell lysis buffer. After centrifuged at 10,000 g for 20 minutes, supernatant containing cytosolic hPDE10A enzyme is collected and stored at −80° C. PDE10A inhibition assay is performed using the IMAP fluorescence polarization assay (Molecular Devices) according to the manufacturer's protocols. A fixed amount of the hPDE10A enzyme is pretreated with the test compounds, following the addition of fluorescein-labeled cAMP/cGMP. After 1 hour incubation, the IMAP binding reagent is added and incubated for another hour. The fluorescence polarization is then quantified with a fluorescence polarization reader Envision from Perkin Elmer. IC50 values are calculated using the Prism program (GraphPad Software).
As for `CCc1cccc(C#Cc2ccc(-c3nn(C)cc3-c3ccncc3)cc2)n1` [Example 4, 2-Ethyl-6-((4-(1-methyl-4-(pyridin-4-yl)-1H-pyrazol-3-yl)phenyl)ethynyl)pyridine], the IC50 was ≤ 10 nM.

Compound `C(#Cc1ccc2ccccc2n1)c1ccc(-n2cnnc2-c2ccncc2)cc1` [Example 23, 2-((4-(3-(pyridin-4-yl)-4H-1,2,4-triazol-4-yl)phenyl)ethynyl)quinoline] returned an IC50 of 10 to 100 nM.

With `OCCn1cc(-c2ccncc2)c(-c2ccc(C#Cc3ccc4ccccc4n3)cc2)n1` [Example 13, 2-(4-(pyridin-4-yl)-3-(4-(quinolin-2-ylethynyl)phenyl)-1H-pyrazol-1-yl)ethanol], the IC50 is ≤ 10 nM.

As for `C(#Cc1ccc2ccccc2n1)c1ccc(-n2ncnc2-c2ccncc2)cc1` [Example 21, 2-((4-(5-(pyridin-4-yl)-1H-1,2,4-triazol-1-yl)phenyl)ethynyl)quinoline], the IC50 was 10 to 100 nM. With `FCCn1cc(-c2ccncc2)c(-c2ccc(C#Cc3ccc4ccccc4n3)cc2)n1` [Example 19, 2-((4-(1-(2-fluoroethyl)-4-(pyridin-4-yl)-1H-pyrazol-3-yl)phenyl)ethynyl)quinoline] the figure was ≤ 10 nM; with `Cn1cc(-c2ccncc2)c(-c2ccc(C#Cc3cccc(C4CC4)n3)cc2)n1` [Example 5, 2-cyclopropyl-6-((4-(1-methyl-4-(pyridin-4-yl)-1H-pyrazol-3-yl)phenyl)ethynyl)pyridine], 10 to 100 nM. Under `FC(F)(F)Cn1cc(-c2ccncc2)c(-c2ccc(C#Cc3ccc4ccccc4n3)cc2)n1` [Example 18] stands ≤ 10 nM. Under `Cn1cc(-c2ccncc2)c(-c2ccc(C#Cc3ccc(C(F)(F)F)cn3)cc2)n1` [Example 9, 2-((4-(1-methyl-4-(pyridin-4-yl)-1H-pyrazol-3-yl)phenyl)ethynyl)-5-(trifluoromethyl)pyridine] stands 100 to 1000 nM; under `COCCn1cc(-c2ccncc2)c(-c2ccc(C#Cc3ccc4ccccc4n3)cc2)n1` [Example 16, 2-((4-(1-(2-methoxyethyl)-4-(pyridin-4-yl)-1H-pyrazol-3-yl)phenyl)ethynyl)quinoline], ≤ 10 nM.

`Cn1ncc(-c2ccc(C#Cc3ccc4ccccc4n3)cc2)c1-c1ccncc1` [Example 37, 2-((4-(1-methyl-5-(pyridin-4-yl)-1H-pyrazol-4-yl)phenyl)ethynyl)quinoline]: the IC50 is 10 to 100 nM. For `C(#Cc1ccc2ccccc2n1)c1ccc(-c2c[nH]nc2-c2ccncc2)cc1` [Example 35, 2-((4-(3-(pyridin-4-yl)-1H-pyrazol-4-yl)phenyl)ethynyl)quinoline], the IC50 was ≤ 10 nM. Under `C(#Cc1ccc2ccccc2n1)c1ccc(-c2nn(C3CC3)cc2-c2ccncc2)cc1` [Example 12, 2-((4-(1-cyclopropyl-4-(pyridin-4-yl)-1H-pyrazol-3-yl)phenyl)ethynyl)quinoline] stands ≤ 10 nM; under `Cn1cc(-c2ccc(O)cc2)c(-c2ccc(C#Cc3ccc4ccccc4n3)cc2)n1` [Example 34, 4-(1-methyl-3-(4-(quinolin-2-ylethynyl)phenyl)-1H-pyrazol-4-yl)phenol], 10 to 100 nM; under `Cn1cc(-c2ccc(C#Cc3ccc4ccccc4n3)cc2)c(-c2ccncc2)n1` [Example 36, 2-((4-(1-methyl-3-(pyridin-4-yl)-1H-pyrazol-4-yl)phenyl)ethynyl)quinoline], ≤ 10 nM. Take `CCn1cc(-c2ccncc2)c(-c2ccc(C#Cc3ccc4ccccc4n3)cc2)n1` [Example 15, 2-((4-(1-ethyl-4-(pyridin-4-yl)-1H-pyrazol-3-yl)phenyl)ethynyl)quinoline]: the IC50 was ≤ 10 nM. As to `Cn1cc(-c2ccncc2)c(-c2ccc(C#Cc3ccc4ccccc4n3)cc2F)n1` [Example 25, 2-((3-fluoro-4-(1-methyl-4-(pyridin-4-yl)-1H-pyrazol-3-yl)phenyl)ethynyl)quinoline], the IC50 is ≤ 10 nM. With `FCCn1cc(-c2ccncc2)c(-c2ccc(C#Cc3ccc4ccccc4n3)nc2)n1` [Example 32, 2-((5-(1-(2-fluoroethyl)-4-(pyridin-4-yl)-1H-pyrazol-3-yl)pyridin-2-yl)ethynyl)quinoline] the figure was ≤ 10 nM.

In the case of `Cc1ccc(C#Cc2ccc(-c3nn(C)cc3-c3ccncc3)cc2)nc1` [Example 6], the IC50 was ≤ 10 nM. Under `Cn1cc(-c2ccncc2)c(-c2ccc(C#Cc3ncc4ccccc4n3)cc2)n1` [Example 2, 2-((4-(1-methyl-4-(pyridin-4-yl)-1H-pyrazol-3-yl)phenyl)ethynyl)quinazoline] stands ≤ 10 nM. For the compound `CCn1cc(-c2ccncc2)c(-c2ccc(C#Cc3ccc4ccccc4n3)nc2)n1` [Example 31, 2-((5-(1-ethyl-4-(pyridin-4-yl)-1H-pyrazol-3-yl)pyridin-2-yl)ethynyl)quinoline], the IC50 was ≤ 10 nM. `C(#Cc1ccc2ccccc2n1)c1ccc(-c2ncncc2-c2ccncc2)cc1` [Example 20, 2-((4-(5-(pyridin-4-yl)pyrimidin-4-yl)phenyl)ethynyl)quinoline]: the IC50 fell in the range of 10 to 100 nM.

For the compound `Cn1cc(-c2ccncc2)c(-c2ccc(C#Cc3cccc(C(F)(F)F)n3)cc2)n1` [Example 8, 2-((4-(1-methyl-4-(pyridin-4-yl)-1H-pyrazol-3-yl)phenyl)ethynyl)-6-(trifluoromethyl)pyridine], the IC50 was 100 to 1000 nM. Under `Cn1cc(-c2ccncc2)c(-c2ccc(C#Cc3ccc(C4CC4)cn3)cc2)n1` [Example 7, 5-cyclopropyl-2-((4-(1-methyl-4-(pyridin-4-yl)-1H-pyrazol-3-yl)phenyl)ethynyl)pyridine] stands ≤ 10 nM. For `C(#Cc1ccc2ccccc2n1)c1ccc(-c2n[nH]cc2-c2ccncc2)cc1` [Example 11, 2-((4-(4-(pyridin-4-yl)-1H-pyrazol-3-yl)phenyl)ethynyl)quinoline], the IC50 was ≤ 10 nM. With `Cn1cc(-c2ccncc2)c(-c2ccc(C#Cc3ccc4ccccc4n3)nc2)n1` [Example 24, 2-(5-(1-methyl-4-pyridin-4-yl-1H-pyrazol-3-yl)pyridin-2-ylethynyl)quinoline] the figure was ≤ 10 nM. With `CNCCn1cc(-c2ccncc2)c(-c2ccc(C#Cc3ccc4ccccc4n3)cc2)n1` [Example 14, N-methyl-2-(4-(pyridin-4-yl)-3-(4-(quinolin-2-ylethynyl)phenyl)-1H-pyrazol-1-yl)ethanamine] the figure was ≤ 10 nM; with `COc1ccc(-c2cn(C)nc2-c2ccc(C#Cc3ccc4ccccc4n3)cc2)cc1` [Example 33, 2-((4-(4-(4-methoxyphenyl)-1-methyl-1H-pyrazol-3-yl)phenyl)ethynyl)quinoline], 10 to 100 nM; with `Cn1cc(-c2ccncn2)c(-c2ccc(C#Cc3ccc4ccccc4n3)cc2)n1` [Example 26], 10 to 100 nM. Consider `C(#Cc1ccc2ccccc2n1)c1ccc(-c2ccnn2-c2ccncc2)cc1` [Example 28, 2-((4-(1-(pyridin-4-yl)-1H-pyrazol-5-yl)phenyl)ethynyl)quinoline], for which the IC50 was ≤ 10 nM. On to `Cn1cc(-c2ccncc2)c(-c2ccc(C#Cc3ccc4ccccc4n3)cn2)n1` [Example 27, 2-((6-(1-methyl-4-(pyridin-4-yl)-1H-pyrazol-3-yl)pyridin-3-yl)ethynyl)quinoline], for which the IC50 was ≤ 10 nM. Under `CN(C)CCn1cc(-c2ccncc2)c(-c2ccc(C#Cc3ccc4ccccc4n3)cc2)n1` [Example 17, N,N-dimethyl-2-(4-(pyridine-4-yl)-3-(4-(quinolin-2-ylethynyl)phenyl)-1H-pyrazol-1-yl)ethanamine] stands ≤ 10 nM; under `COc1cccc(C#Cc2ccc(-c3nn(C)cc3-c3ccncc3)cc2)n1` [Example 10, 2-methoxy-6-((4-(1-methyl-4-(pyridin-4-yl)-1H-pyrazol-3-yl)phenyl)ethynyl)pyridine], ≤ 10 nM; under `Cc1cccc(C#Cc2ccc(-c3nn(C)cc3-c3ccncc3)cc2)n1` [Example 3], ≤ 10 nM. In the case of `Cn1cc(-c2ccncc2)c(-c2ccc(C#Cc3ccc4ccccc4n3)cc2)n1` [Example 1, 2-((4-(1-methyl-4-(pyridin-4-yl)-1H-pyrazol-3-yl)phenyl)ethynyl)quinoline], the IC50 is ≤ 10 nM.

On to `C(#Cc1ccc2ccccc2n1)c1ccc(-n2nccc2-c2ccncc2)cc1` [Example 22, 2-((4-(5-(pyridin-4-yl)-1H-pyrazol-1-yl)phenyl)ethynyl)quinoline], for which the concentration for half-maximal inhibition (IC50) was ≤ 10 nM.
